Key:
NCI-H226 cells = test: Viability assay in NCI-H226 (Yap-dependent) cells, CyQuant; format: cell-based, human; conditions: class symbols
Procedure, shortened: (§1)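 Seeded cells were dosed 24 h later in duplicate (10-point, 1:3 dilutions, top 30 μM final, 0.3% DMSO) and incubated 96 h at 37 °C. Viability was read with CyQUANT DNA dye after 1 h, fluorescence bottom read. NCI-H226 in RPMI 1640 medium; SW620 YAP/TAZ CRISPR knockout in DMEM/F-12 medium.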

YAP-TEAD interaction = test: SK-HEP-1 reporter assay (8xTEAD responsive elements driving NanoLuc luciferase); format: cell-based
Procedure, shortened: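 Reporter read-out: NanoLuc luminescence from 8×TEAD elements stably integrated in SK-HEP-1 cells, after 24 h compound exposure at 37° C. Ten concentrations tested in duplicate, top 30 μM final, 0.3% DMSO; IC50 from curve.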

SW620 Yap KO cells = test: Viability assay in SW620 Yap KO (Yap independent) cells, CyQuant; format: cell-based; conditions: Homo sapiens, SW-620, 96 h
Procedure, shortened: as §1

[1] = Homo sapiens, SK-HEP1, SK-HEP-1 reporter assay, class symbols
[2] = n.d. = value not detectable below threshold given in parentheses
[3] = n.d. = value not detectable below threshold given in parentheses, ND = not determinable within the entire range
[4] = Homo sapiens, SK-HEP1, SK-HEP-1 reporter assay, n.d. = value not detectable below threshold given in parentheses
[5] = SK-HEP-1 reporter assay, class symbols

IC50 (NCI-H226 cells; Homo sapiens, NCI-H226, 96 h) [nM] | IC50 (YAP-TEAD interaction; [1]) [nM] | IC50 (SW620 Yap KO cells; [2]) [nM] | IC50 (SW620 Yap KO cells; [3]) [nM] | IC50 (YAP-TEAD interaction; [4]) [nM] | IC50 (YAP-TEAD interaction; [5]) [nM] | IC50 (SW620 Yap KO cells; class symbols) [nM] | IC50 (NCI-H226 cells; 96 h) [nM] | SMILES
1 to 100 | 10 to 100 | > 30000 | – | – | – | – | – | Cn1nc2c3cc(C(=O)N=[S@](C)(=O)CCCO)ccc3n(-c3ccc(C(F)(F)F)cc3)c2n1 (single isomer, unassigned) [Example C172]
1 to 100 | 10 to 100 | – | > 3200 | – | – | – | – | Cc1snc2c1c1cc(C(=O)N[C@@H](CO)C3CCC3)ccc1n2-c1ccc(C(F)(F)F)cc1 [Example C91, N-[(1R)-1-cyclobutyl-2-hydroxyethyl]-3-methyl-8-[4-(trifluoromethyl)phenyl]-8H-[1,2]thiazolo[3,4-b]indole-5-carboxamide]
100 to 1000 | 10 to 100 | > 30000 | – | – | – | – | – | Cn1nc2c3cc(C(=O)N[C@H](CO)c4ccccn4)ccc3n(-c3ccc(C(F)(F)F)cc3)c2n1 [Example C249, N-[(1S)-2-hydroxy-1-(pyridin-2-yl)ethyl]-2-methyl-4-[4-(trifluoromethyl)phenyl]-2H,4H-[1,2,3]triazolo[4,5-b]indole-7-carboxamide]
1000 to 10000 | 10 to 100 | – | > 30000 | – | – | – | – | Cn1cc2c3cc(S(=O)(=O)NCCO)ccc3n(-c3ccc(C(F)(F)F)cc3)c2n1 [Example C57, N-(2-hydroxyethyl)-2-methyl-8-[4-(trifluoromethyl)phenyl]-2H,8H-pyrazolo[3,4-b]indole-5-sulfonamide]
1 to 100 | 10 to 100 | > 30000 | – | – | – | – | – | Cn1nc2c3cc(C(=O)N=[S@@](C)(=O)CCCO)ccc3n(-c3ccc(C(F)(F)F)cc3)c2n1 (single isomer, unassigned) [Example C173]
1 to 100 | 10 to 100 | – | > 30000 | – | – | – | – | C[C@H](NC(=O)c1ccc2c(c1)c1cn(C)nc1n2-c1ccc(C(F)(F)F)cc1)c1ccccn1 [Example C105, 2-methyl-N-[(1S)-1-(pyridin-2-yl)ethyl]-8-[4-(trifluoromethyl)phenyl]-2H,8H-pyrazolo[3,4-b]indole-5-carboxamide]
1 to 100 | 10 to 100 | – | > 3200 | – | – | – | – | Cc1snc2c1c1cc(C(=O)N[C@@H](CO)c3ccccn3)ccc1n2-c1ccc(C(F)(F)F)cc1 [Example C67, N-[(1R)-2-hydroxy-1-(pyridin-2-yl)ethyl]-3-methyl-8-[4-(trifluoromethyl)phenyl]-8H-[1,2]thiazolo[3,4-b]indole-5-carboxamide]
100 to 1000 | – | > 3000 | – | > 95 | – | – | – | Cn1cc2c3cc(C(=O)N=[S@@](=O)(CCCO)Cc4ccccn4)ccc3n(-c3ccc(C(F)(F)F)cc3)c2n1 (single isomer, unassigned) [Example C210]
1 to 100 | 10 to 100 | – | > 30000 | – | – | – | – | CNC(=O)c1ccc2c(c1)c1cn(C)nc1n2-c1ccc(C(F)(F)F)cn1 [Example C147, N,2-dimethyl-8-[5-(trifluoromethyl)pyridin-2-yl]-2H,8H-pyrazolo[3,4-b]indole-5-carboxamide]
1 to 100 | 10 to 100 | > 3000 | – | – | – | – | – | Cn1nc2c3cc(C(=O)N[C@@H](CCO)c4ccccn4)ccc3n(-c3ccc(C(F)(F)F)cc3)c2n1 (single isomer, unassigned) [Example C242]
1 to 100 | 10 to 100 | – | > 3200 | – | – | – | – | Cc1snc2c1c1cc(C(=O)N[C@H](c3ccccc3)[C@H](C)O)ccc1n2-c1ccc(C(F)(F)F)cc1 [Example C81, N-[(1R,2S)-2-hydroxy-1-phenylpropyl]-3-methyl-8-[4-(trifluoromethyl)phenyl]-8H-[1,2]thiazolo[3,4-b]indole-5-carboxamide]
1 to 100 | 10 to 100 | – | > 30000 | – | – | – | – | Cc1snc2c1c1cc(C(=O)NCCn3ccnc3)ccc1n2-c1ccc(C(F)(F)F)cc1 [Example C121]
1 to 100 | – | > 30000 | – | – | 10 to 100 | – | – | COCCC(CO)NC(=O)c1ccc2c(c1)c1cn(C)nc1n2-c1ccc(C(F)(F)F)cc1 (single isomer, unassigned) [Example C245]
1 to 100 | 10 to 100 | – | > 30000 | – | – | – | – | Cn1cc2c3cc(C(=O)N[C@@H](CCO)c4cncs4)ccc3n(-c3ccc(C(F)(F)F)cc3)c2n1 (single isomer, unassigned) [Example C162]
100 to 1000 | 100 to 10000 | > 30000 | – | – | – | – | – | [2H]C1([2H])C(n2c3ccc(C(=O)N[C@@H](CO)c4ccccn4)cc3c3cn(C)nc32)C([2H])([2H])C([2H])([2H])C([2H])([2H])C1([2H])[2H] [Example C196, 8-[(2,2,3,3,4,4,5,5,6,6-^2H10)cyclohexyl]-N-[(1R)-2-hydroxy-1-(pyridin-2-yl)ethyl]-2-methyl-2H,8H-pyrazolo[3,4-b]indole-5-carboxamide]
100 to 1000 | – | – | – | > 300 | – | 1000 to 10000 | – | Cn1nc2c3cc(C(=O)N=[S@](=O)(CCCO)Cc4ccncc4)ccc3n(-c3ccc(C(F)(F)F)cc3)c2n1 (single isomer, unassigned) [Example C252]
1 to 100 | 10 to 100 | > 3200 | – | – | – | – | – | CNC(=O)c1ccc2c(c1)c1cn(C)nc1n2-c1ccc(C(F)(F)F)c(F)c1 [Example C166, 8-[3-fluoro-4-(trifluoromethyl)phenyl]-N,2-dimethyl-2H,8H-pyrazolo[3,4-b]indole-5-carboxamide]
1000 to 10000 | 100 to 10000 | > 30000 | – | – | – | – | – | [2H]C1([2H])C(n2c3ccc(C(=O)NC)cc3c3cn(C)nc32)C([2H])([2H])C([2H])([2H])C([2H])([2H])C1([2H])[2H] [Example C194, 8-[(2,2,3,3,4,4,5,5,6,6-^2H10)cyclohexyl]-N,2-dimethyl-2H,8H-pyrazolo[3,4-b]indole-5-carboxamide]
1 to 100 | 10 to 100 | – | > 30000 | – | – | – | – | Cc1c2c3cc(C(=O)O)ccc3n(-c3ccc(C(F)(F)F)cc3)c2nn1C [Example C95, 2,3-dimethyl-8-[4-(trifluoromethyl)phenyl]-2H,8H-pyrazolo[3,4-b]indole-5-carboxylic acid]
1 to 100 | 10 to 100 | – | > 30000 | – | – | – | – | Cc1snc2c1c1cc(C(=O)NC[C@H](C)O)ccc1n2-c1ccc(C(F)(F)F)cc1 [Example C94, N-[(2S)-2-hydroxypropyl]-3-methyl-8-[4-(trifluoromethyl)phenyl]-8H-[1,2]thiazolo[3,4-b]indole-5-carboxamide]
1 to 100 | 10 to 100 | – | > 3200 | – | – | – | – | Cc1c2c3cc(C(=O)NCc4ccncc4)ccc3n(-c3ccc(C(F)(F)F)cc3)c2nn1C [Example C98, 2,3-dimethyl-N-[(pyridin-4-yl)methyl]-8-[4-(trifluoromethyl)phenyl]-2H,8H-pyrazolo[3,4-b]indole-5-carboxamide]
100 to 1000 | – | > 3000 | – | > 300 | – | – | – | Cn1nc2c3cc(C(=O)N=[S@](=O)(CCCO)Cc4cccnc4)ccc3n(-c3ccc(C(F)(F)F)cc3)c2n1 (single isomer, unassigned) [Example C202]
100 to 1000 | – | > 3000 | – | > 95 | – | – | – | Cn1cc2c3cc(C(=O)N=[S@@](=O)(CCCO)Cc4cccnc4)ccc3n(-c3ccc(C(F)(F)F)cc3)c2n1 (single isomer, unassigned) [Example C199]
1 to 100 | 10 to 100 | > 3200 | – | – | – | – | – | Cn1cc2c3cc(C(=O)N=S(C)(C)=O)ccc3n(-c3ccc(C(F)(F)F)c(F)c3)c2n1 [Example C168, N-[dimethyl(oxo)-lambda6-sulfanylidene]-8-[3-fluoro-4-(trifluoromethyl)phenyl]-2-methyl-2H,8H-pyrazolo[3,4-b]indole-5-carboxamide]
– | – | – | > 30000 | – | 10 to 100 | – | 100 to 1000 | Cn1cc2c3cc(C(=O)O)cnc3n(-c3ccc(C(F)(F)F)cc3)c2n1 [Example C110, 4-methyl-7-[4-(trifluoromethyl)phenyl]-4,5,7,9-tetraazatri-cyclo[6.4.0.0^2,6]dodeca-1(8),2,5,9,11-pentaene-11-carboxylic acid]
100 to 1000 | 10 to 100 | > 30000 | – | – | – | – | – | C[C@@H](NC(=O)c1ccc2c(c1)c1nn(C)nc1n2-c1ccc(C(F)(F)F)cc1)c1ccccn1 [Example C176, 2-methyl-N-[(1R)-1-(pyridin-2-yl)ethyl]-4-[4-(trifluoromethyl)phenyl]-2H,4H-[1,2,3]triazolo[4,5-b]indole-7-carboxamide]
1 to 100 | 10 to 100 | > 3000 | – | – | – | – | – | C[C@@H](NC(=O)c1ccc2c(c1)c1nn(C)nc1n2-c1ccc(C(F)(F)F)cc1)c1cccc(N)n1 [Example C181, N-[(1R)-1-(6-aminopyridin-2-yl)ethyl]-2-methyl-4-[4-(trifluoromethyl)phenyl]-2H,4H-[1,2,3]triazolo[4,5-b]indole-7-carboxamide]
1 to 100 | 10 to 100 | – | > 30000 | – | – | – | – | Cn1nc2c3cc(C(=O)N=S(C)(=O)CCO)ccc3n(-c3ccc(C(F)(F)F)cc3)c2n1 (stereo not drawn) [Example C31, N-[(2-hydroxyethyl)(methyl)oxo-A6-sulfanylidene]-2-methyl-4-[4-(trifluoromethyl)phenyl]-2H,4H-[1,2,3]triazolo[4,5-b]indole-7-carboxamide]
1 to 100 | 10 to 100 | > 30000 | – | – | – | – | – | Cn1cnc2c1c1cc(C=O)ccc1n2-c1ccc(C(F)(F)F)cc1 [Example C174, 1-methyl-4-[4-(trifluoromethyl)phenyl]-1H,4H-imidazo[4,5-b]indole-7-carbaldehyde]

Reference: patent US20240270748A1 (Merck Patent GmbH, priority 2021, published 2024)
